Reference: BindingDB's records for doi:10.1021/acschembio.7b00489 (Michigan State University, 2017)
Values joined by “and” are separate entries in the source; they are usually repeats but may differ in a detail not shown here. Equal values may be shown once. Where a name gives a salt, the structure may show the parent alone.

Experiments:
[1] = target: Proteasome subunit alpha type-6 (Homo sapiens, UniProt P60900); experiment: Proteasome Activity Assay; settings: pH 7.5; 37 °C
Description: Activity assays were carried out in a 200 uL reaction volume. Different concentrations of test compounds were added to a black flat/clear bottom 96-well plate containing 1 nM of either human constitutive 20S proteasome or 26S proteasome, in 50 mM Tris-HCl at pH 7.5 and allowed to sit for 10 min at RT. Fluorogenic substrates were then added and the enzymatic activity measured at 37 °C on a SpectraMax M5e spectrometer by measuring the change in fluorescence unit per minute for 1 h at 380−460 nm. The fluorescence units for the vehicle control were set at a 100%, and the ratio of drug-treated sample set to that of vehicle control was used to calculate the fold change in enzymatic activity.

[2] = target: Dopamine D2 receptor (Homo sapiens); experiment: Human embryonic kidney (HEK-293) cells were plated in 100 mm plates and transfected with pcDNA3.1-D2R using Lipofectamine 2000 (Invitrogen; Waltham, MA) according to the manufacturer's instructions. Radioligand binding assays were performed 24 h after transfection essentially as described.

Proteasome subunit alpha type-6, sequence (P60900 whole entry): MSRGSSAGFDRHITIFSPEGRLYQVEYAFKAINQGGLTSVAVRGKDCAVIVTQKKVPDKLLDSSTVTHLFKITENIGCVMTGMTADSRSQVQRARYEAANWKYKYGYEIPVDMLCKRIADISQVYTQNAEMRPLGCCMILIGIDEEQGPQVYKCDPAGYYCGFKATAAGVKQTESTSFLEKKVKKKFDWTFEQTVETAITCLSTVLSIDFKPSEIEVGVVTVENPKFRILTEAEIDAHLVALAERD

SMILES	EC50 [1]	Ki [2]
CN1CCCC(CC2c3ccccc3Sc3ccccc32)C1 (centres undefined) [METHIXENE]	11.9 µM	–
CN(C)CCCN1c2ccccc2Sc2ccc(Cl)cc21 [[3-(2-Chloro-phenothiazin-10-yl)-propyl]-dimethyl-amine(Chlorpromazine)]	14.8 µM and 9.9 µM	–
CC(C)CCCN1c2ccccc2Sc2ccc(Cl)cc21 [CPZ analog, 1]	> 25 µM	> 250 µM
O=S(=O)(O)CCCN1c2ccccc2Sc2ccc(Cl)cc21 [CPZ analog, 3]	> 25 µM	–
O=C(O)C#CCN1c2ccccc2Sc2ccc(Cl)cc21 [CPZ analog, 6]	> 25 µM	> 250 µM
CSc1ccc2c(c1)N(CC[C@@H]1CCCCN1C)c1ccccc1S2 [10-[2-(1-Methyl-piperidin-2-yl)-ethyl]-2-methylsulfanyl-10H-phenothiazine (thioridazine)]	12 µM	–
COC(=O)c1ccc(CN2c3ccccc3Sc3ccc(Cl)cc32)cc1 [CPZ analog, 8]	15.6 µM	> 250 µM
O=S(=O)(O)CCCCCN1c2ccccc2Sc2ccc(Cl)cc21 [CPZ analog, 4]	> 25 µM	–
CN(C)CCCN1c2ccccc2CCc2ccc(Cl)cc21 [CLOMIPRAMINE HYDROCHLORIDE]	12.4 µM	–

The remaining compounds from weak to strong by EC50 [1], led by results:

EC50 [1]	Ki [2]	SMILES
8.9 µM	> 2.97 µM	Clc1ccc2c(c1)N(CCCCN1CCOCC1)c1ccccc1S2 [CPZ analog, 5]
7.8 µM	–	CN(C)CCCN1c2ccccc2Sc2ccc(C(F)(F)F)cc21 [TRIFLUPROMAZINE]
6.4 µM	> 250 µM	O=C(O)c1ccc(CN2c3ccccc3Sc3ccc(Cl)cc32)cc1 [CPZ analog, 7]
6.3 µM	> 250 µM	O=S(=O)(O)CCCCN1c2ccccc2Sc2ccc(Cl)cc21 [CPZ analog, 2]
